How the values were obtained:
OAT2r = target: T1, OAT2r (Rattus norvegicus, UniProt Q5RLM2); assay: efflux of glutamate from OAT2r-expressing 293 cells (LC-MS/MS); format: cell-based
T1 construct: expressed in transfected cells
T1 sequence (Q5RLM2 1-535): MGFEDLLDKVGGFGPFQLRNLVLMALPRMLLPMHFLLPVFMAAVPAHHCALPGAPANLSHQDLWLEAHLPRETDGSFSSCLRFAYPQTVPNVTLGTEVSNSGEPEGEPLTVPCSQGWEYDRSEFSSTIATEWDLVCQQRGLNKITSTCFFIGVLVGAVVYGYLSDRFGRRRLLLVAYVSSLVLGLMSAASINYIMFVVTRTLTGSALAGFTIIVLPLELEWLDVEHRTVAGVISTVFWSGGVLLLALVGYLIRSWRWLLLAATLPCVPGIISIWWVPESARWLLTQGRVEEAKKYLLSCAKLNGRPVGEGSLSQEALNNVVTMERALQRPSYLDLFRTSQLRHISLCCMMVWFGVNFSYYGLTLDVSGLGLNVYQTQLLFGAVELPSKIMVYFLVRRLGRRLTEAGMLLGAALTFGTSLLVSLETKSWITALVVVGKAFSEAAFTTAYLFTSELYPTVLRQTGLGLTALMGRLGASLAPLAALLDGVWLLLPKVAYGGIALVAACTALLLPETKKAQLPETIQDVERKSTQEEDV
Method: To test this hypothesis, 293 cells with or without expression of OAT2r were incubated 10 min in uptake buffer; then, the glutamate content of a buffer sample was determined by LC-MS/MS.
For measurement of solute uptake, cells were grown in surface culture on 60 mm polystyrol dishes (Nunclon 150288, Nunc, Roskilde, Denmark) precoated with 0.1 g/l poly-L-ornithine in 0.15 M boric acid-NaOH, pH 8.4. Cells were used for uptake experiments at a confluence of at least 70%. Uptake was measured at 37° C. Uptake buffer contains 125 mmol/l NaCl, 25 mmol/l HEPES-NaOH pH 7.4, 5.6 mmol/l (+)glucose, 4.8 mmol/l KCl, 1.2 mmol/l KH2PO4, 1.2 mmol/l CaCl2, and 1.2 mmol/l MgSO4. In glutamate efflux experiments, uptake buffer without KH2PO4 was used to avoid MS interference. After preincubation for at least 20 minutes in 4 ml of uptake buffer, the buffer was replaced with 2 ml of substrate in uptake buffer. The total substrate concentration if not indicated otherwise was 0.1 μmol/l for radiotracer assays and 10 μmol/l for unlabeled compounds. Incubation was stopped after 1 min by rinsing the cells four times each with 4 ml ice-cold uptake buffer. Radioactivity was determined, after cell lysis with 0.1% v/v Triton X-100 in 5 mmol/l TRIS-HCl pH 7.4, by liquid scintillation counting. For LCelectrospray ionization-MS/MS analysis, cells were lysed with methanol and stored at −20° C.

OAT2h mutant E441Q = target: T2, OAT2h mutant E441Q (Homo sapiens, UniProt Q9Y694, E443Q); assay: uptake by OAT2h mutant E441Q (eGFP chimera) in 293 cells; format: cell-based; details: 1 min, 37° C., 0.1 μmol/l radiolabeled solute
T2 construct: expressed in transfected cells; host or cells: 293 cells (HEK-293), doxycycline-inducible
T2 sequence (Q9Y694 1-546 isoform Q9Y694-2 E441Q): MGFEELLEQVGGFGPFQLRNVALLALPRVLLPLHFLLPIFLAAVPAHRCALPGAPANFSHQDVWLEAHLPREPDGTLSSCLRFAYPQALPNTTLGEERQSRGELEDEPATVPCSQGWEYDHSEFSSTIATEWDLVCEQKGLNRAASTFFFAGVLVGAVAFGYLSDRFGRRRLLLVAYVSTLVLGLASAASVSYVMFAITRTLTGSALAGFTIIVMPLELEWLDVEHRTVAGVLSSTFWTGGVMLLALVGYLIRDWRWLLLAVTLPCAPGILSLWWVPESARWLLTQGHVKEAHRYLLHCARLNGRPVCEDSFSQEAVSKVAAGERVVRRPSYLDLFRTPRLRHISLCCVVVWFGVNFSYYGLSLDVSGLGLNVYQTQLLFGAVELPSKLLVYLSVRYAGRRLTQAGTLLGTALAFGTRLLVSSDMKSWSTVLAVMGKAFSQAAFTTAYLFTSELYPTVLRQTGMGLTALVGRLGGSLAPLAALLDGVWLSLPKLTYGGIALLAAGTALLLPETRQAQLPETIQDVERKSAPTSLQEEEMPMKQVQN
Method: 293 cells transfected for expression of eGFP chimera of OAT2h wild-type or OAT2hE441Q in dishes were incubated (1 min, 37° C.) with 0.1 μmol/l radiolabeled solute in uptake buffer, washed, and lysed. Cell lysates were analyzed by liquid scintillation counting.
In transmembrane segment 10, the OAT2 orthologues from human, horse, pig, cattle, rabbit, rat, mouse, opossum, and chicken uniformly contain a glutamate (E441 in OAT2h) that is absent in the related carriers OAT1, OAT3, and SLC22A13. Since in other SLC22 family members transmembrane segment 10 is involved in substrate discrimination (Bacher et al. Biochim Biophys Acta 2009; 1788:2594-2602.), the negative charge of the glutamate side chain could specifically attract the ammonium residue of the glutamate substrate. To test this hypothesis, a mutant of OAT2h was created with glutamine at position 441 (E441 Q); eGFP was attached to the C-terminus to verify unaltered membrane trafficking (FIG. 23). […] It follows that E441 is essential for transport of glutamate. […]

Row | Compound | release of glutamate upon expression of OAT2 (in words) (OAT2r; 10 min in uptake buffer, without extracellular exchange substrate) | uptake with mutant E441Q versus wild-type (in words) (OAT2h mutant E441Q) | effect on efflux of glutamate (in words) (OAT2r; 1 mmol/l compound in uptake buffer, 10 min)
1 | N[C@@H](CCC(=O)O)C(=O)O [glutamate] | markedly increased release | completely abolished | –
2 | O=C(O)c1cc(=O)[nH]c(=O)[nH]1 [orotic acid] | – | much reduced, but still evident | strongly trans-stimulated efflux of glutamate

Reference: patent US20140090094A1, “MODULATORS OF SLC22A7” (BAYER INTELLECTUAL PROPERTY GmbH, priority 2011, published 2014)
